What was measured:
Malat-1 [1] = experiment: Malat-1 RNA by RT-qPCR in MHT cells; autophagy modulator, then oligonucleotide by free uptake; assay type: cell-based, mouse
Procedure: MHT cells (a mouse hepatocellular carcinoma cell line) were plated at 20,000 cells/well and treated with DMSO (control) or an autophagy modulator for 24 hours at the concentrations indicated in Table 2 below. 3-MA, BafA1, AZD8055, and leupeptin are […]. […] Fourteen hours after the addition of autophagy modulators, 10 μM of a modified control oligonucleotide or of a modified antisense oligonucleotide was added by free uptake for ten hours. The modified oligonucleotides, shown in Table 1 below, are 3-10-3 cEt gapmers in which every internucleoside linkage is a phosphorothioate internucleoside linkage. The three 5′-terminal nucleosides and the three 3′-terminal nucleosides of each oligonucleotide each comprise a cEt modified sugar moiety. The remaining ten nucleosides of each oligonucleotide each comprise an unmodified, 2′-deoxy sugar moiety.
Using the primer probe sets described in Table 3 below, RT-qPCR analysis was performed to detect RNA levels of Malat-1, shown in Table 4 and markers of autophagy, (Rab7, LAMP2, Atg7, ULK1, ULK2, Atg5, Beclin, and c-Jun), shown in Table 5. Results were normalized to cyclophilin A levels. To control for global effects of autophagy modulators on gene expression, Malat-1 RNA levels after treatment with an antisense oligonucleotide and an autophagy modulator were normalized to Malat-1 RNA levels in cells treated with control Compound No. 549148 and the same autophagy modulator.
MHT cells were plated at 20,000 cells/well and treated with DMSO (control) or an autophagy modulator for 24 hours, at the concentrations indicated Table 7 below. Fourteen hours after the addition of autophagy modulator, control or antisense oligonucleotides (see Table 6) were added at 1 μM, 2.5 μM, 5 μM, or 10 μM by free uptake for ten hours. The modified oligonucleotides, shown in Table 6 below, are 5-10-5 MOE gapmers in which every internucleoside linkage is a phosphorothioate internucleoside linkage. The five 5′-terminal nucleosides and the five 3′-terminal nucleosides of each oligonucleotide each comprise a 2′-MOE modified sugar moiety. The remaining ten nucleosides of each oligonucleotide each comprise an unmodified, 2′-deoxy sugar moiety.
RT-qPCR analysis was performed to detect RNA levels of Malat-1 using primer probe set 15877 (described in Example 1). In order to control for global effects of autophagy modulators on gene expression, Malat-1 RNA levels after treatment with an antisense oligonucleotide and an autophagy modulator were normalized to Malat-1 RNA levels in cells treated with control Compound No. 141923 and the same autophagy modulator. Each table below represents results from an individual assay.

Malat-1 [2] = experiment: MALAT-1 RNA in mouse liver by RT-qPCR; assay type: in vivo
Procedure: The following experiments were performed to determine if the effects of autophagy modulators on antisense activity in vitro can be observed in vivo. […] Mice were sacrificed at 24 hours after administration of the modified oligonucleotide and tissues were collected for analysis. […] Atg7 mRNA levels are a marker of the induction of autophagy in treated mouse livers. Results are presented as percent change of RNA, relative to PBS control treated with DMSO, normalized to mouse cyclophilin A measured using mouse primer probe set Cyclophilin-A (forward sequence [NT], designated herein as SEQ ID NO: 38; reverse sequence [NT], designated herein as SEQ ID NO: 39; probe sequence [NT], designated herein as SEQ ID NO: 40). […] Following administration of modified oligonucleotide, groups of mice were either allowed free access to chow (control) or fasted overnight (16 hr fast). Mice were sacrificed at 16 hours after administration of the modified oligonucleotide and tissues were collected for analysis. […] Atg7 mRNA levels are a marker of the induction of autophagy in treated mouse livers. Results are presented in Table 33 relative to mice treated with PBS and allowed normal access to chow. […] Mice were sacrificed at 24 hours after administration of the modified oligonucleotide and tissues were collected for analysis. […] Atg7 mRNA levels are a marker of the induction of autophagy in treated mouse livers. […] RNA was extracted from liver tissue for real-time RTPCR analysis of MALAT1 RNA expression. Primer probe set 15877 was used to measure mouse MALAT1 RNA levels. Results are presented as percent change of RNA, relative to PBS control, normalized to mouse cyclophilin A measured using mouse primer probe set Cyclophilin-A. […] RNA was extracted from liver tissue for real-time RTPCR analysis of MALAT1 RNA expression. Primer probe set 15877 was used to measure mouse MALAT1 RNA levels. Results are presented as percent change of RNA, relative to PBS control, normalized to mouse cyclophilin A measured using mouse primer probe set Cyclophilin-A.

`COc1ccc(-c2ccc3c(N4CCOC[C@@H]4C)nc(N4CCOC[C@@H]4C)nc3n2)cc1CO` [AZD8055] was tested, and the “effect of autophagy modulator on modified oligonucleotide activity (in words)” value (Malat-1 [1]; MOE gapmer 399462, relative to DMSO) was “significantly enhanced modified oligonucleotide activity”, the “effect of autophagy modulator on antisense activity (in words)” value (Malat-1 [1]; cEt gapmer 556089, relative to DMSO) was “significantly enhanced antisense activity” and the “Malat-1 level (% relative to PBS/DMSO-treated mice)” value (Malat-1 [2]; Table 31, mouse liver 24 h, oligonucleotide 5 mg/kg, AZD8055 5 mg/kg at 0, 12, 22 h) was 121%. For the same molecule, the “effect on ASO activity in vivo (in words)” value (Malat-1 [2]; mouse liver, 399462 5 mg/kg, AZD8055 5 mg/kg) was “greater Malat1 RNA reduction”.
